Results: ChEMBL document CHEMBL1201861, “Genomics of Drug Sensitity in Cancer screening data, Wellcome Trust Sanger Institute”

Tests used:
Assay in all cases: cells
NCI-H720 = assay type: functional, cell-based; conditions: Homo sapiens;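 note: growth inhibition of human NCI-H720 cells determined by a cell viability assay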
Description: SANGER: Inhibition of human NCI-H720 cell growth in a cell viability assay.

LB2518-MEL = assay type: functional, cell-based, Homo sapiens; conditions: Homo sapiens, LB2518-MEL;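 note: growth inhibition of human LB2518-MEL cells, measured with a cell viability assay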
Description: SANGER: Inhibition of human LB2518-MEL cell growth in a cell viability assay.

EW-13 = assay type: functional, cell-based; conditions: Homo sapiens;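 note: growth inhibition of EW-13 cells, read out with a cell viability assay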
Description: SANGER: Inhibition of human EW-13 cell growth in a cell viability assay.

COLO-824 = assay type: functional, cell-based, Homo sapiens; conditions: Homo sapiens, COLO-824
Description: SANGER: Inhibition of human COLO-824 cell growth in a cell viability assay.

FaDu = assay type: functional, cell-based, Homo sapiens; conditions: Homo sapiens, FaDu;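 note: cell viability readout of growth inhibition in FaDu cells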
Description: SANGER: Inhibition of human FADU cell growth in a cell viability assay.

J82 = assay type: functional, cell-based; conditions: Homo sapiens;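 note: growth inhibition of J82 cells, read out with a cell viability assay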
Description: SANGER: Inhibition of human J82 cell growth in a cell viability assay.

LAMA-84 = assay type: functional, cell-based; conditions: Homo sapiens;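 note: growth inhibition of LAMA-84 cells, read out with a cell viability assay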
Description: SANGER: Inhibition of human LAMA-84 cell growth in a cell viability assay.

SW837 = assay type: functional, cell-based, Homo sapiens; conditions: Homo sapiens, SW837;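 note: growth inhibition of SW837 cells, determined with a cell viability assay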
Description: SANGER: Inhibition of human SW837 cell growth in a cell viability assay.

ONS-76 = assay type: functional, cell-based, Homo sapiens; conditions: Homo sapiens, ONS-76;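 note: growth inhibition of human ONS-76 cells, read out with a cell viability assay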
Description: SANGER: Inhibition of human ONS-76 cell growth in a cell viability assay.

CAL-85-1 = assay type: functional, cell-based; conditions: Homo sapiens;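 note: growth inhibition of human CAL-85-1 cells, read out with a cell viability assay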
Description: SANGER: Inhibition of human CAL-85-1 cell growth in a cell viability assay.

CW-2 = assay type: functional, cell-based, Homo sapiens; conditions: Homo sapiens, CW-2;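 note: growth inhibition of CW-2 cells, read out by a cell viability assay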
Description: SANGER: Inhibition of human CW-2 cell growth in a cell viability assay.

LS-411N = assay type: functional, cell-based, Homo sapiens; conditions: Homo sapiens, LS-411N
HH = assay type: functional, cell-based; conditions: Homo sapiens
Description: SANGER: Inhibition of human HH cell growth in a cell viability assay.

LS-513 = assay type: functional, cell-based, Homo sapiens; conditions: Homo sapiens, LS-513
Description: SANGER: Inhibition of human LS-513 cell growth in a cell viability assay.

A3-KAW = assay type: functional, cell-based; conditions: Homo sapiens;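 note: growth inhibition of human A3-KAW cells, read out with a cell viability assay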
Description: SANGER: Inhibition of human A3-KAW cell growth in a cell viability assay.

PSN1 = assay type: functional, cell-based, Homo sapiens; conditions: Homo sapiens, PSN1;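 note: suppression of growth of human PSN1 cells, read out by a cell viability assay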
Description: SANGER: Inhibition of human PSN1 cell growth in a cell viability assay.

Ca9-22 = assay type: functional, cell-based, Homo sapiens; conditions: Homo sapiens, Ca9-22;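 note: growth inhibition of Ca9-22 cells, read out with a cell viability assay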
Description: SANGER: Inhibition of human Ca9-22 cell growth in a cell viability assay.

EM-2 = assay type: functional, cell-based; conditions: Homo sapiens;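 note: growth inhibition of EM-2 cells, read out with a cell viability assay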
Description: SANGER: Inhibition of human EM-2 cell growth in a cell viability assay.

LU-139 = assay type: functional, cell-based; conditions: Homo sapiens
Description: SANGER: Inhibition of human LU-139 cell growth in a cell viability assay.

RERF-LC-MS = assay type: functional, cell-based, Homo sapiens; conditions: Homo sapiens, RERF-LC-MS;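 note: growth inhibition of human RERF-LC-MS cells, read out by a cell viability assay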
Description: SANGER: Inhibition of human RERF-LC-MS cell growth in a cell viability assay.

HT-3 = assay type: functional, cell-based, Homo sapiens; conditions: Homo sapiens, HT-3;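 note: growth inhibition measured with a cell viability readout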
Description: SANGER: Inhibition of human HT-3 cell growth in a cell viability assay.

NCI-H650 = assay type: functional, cell-based, Homo sapiens; conditions: Homo sapiens, NCI-H650;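 note: growth inhibition of NCI-H650 cells, read out by a viability assay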
Description: SANGER: Inhibition of human NCI-H650 cell growth in a cell viability assay.

NEC8 = assay type: functional, cell-based, Homo sapiens; conditions: Homo sapiens, NEC8;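 note: growth inhibition of human NEC8 cells, read out by a cell viability assay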
Description: SANGER: Inhibition of human NEC8 cell growth in a cell viability assay.

AM-38 = assay type: functional, cell-based, Homo sapiens; conditions: Homo sapiens, AM-38;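 note: growth inhibition of AM-38 cells of human origin, read out by a cell viability assay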
Description: SANGER: Inhibition of human AM-38 cell growth in a cell viability assay.

Detroit 562 = assay type: functional, cell-based, Homo sapiens; conditions: Homo sapiens, Detroit 562;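 note: growth inhibition of human Detroit 562 cells, read out by a cell viability assay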
Description: SANGER: Inhibition of human Detroit562 cell growth in a cell viability assay.

TE-9 = assay type: functional, cell-based, Homo sapiens; conditions: Homo sapiens, TE-9;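 note: cell growth inhibition, measured with a cell viability readout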
Description: SANGER: Inhibition of human TE-9 cell growth in a cell viability assay.

SF-295 = assay type: functional, cell-based, Homo sapiens; conditions: Homo sapiens, SF-295; read-out: IC50;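 note: growth inhibition of SF-295 cells, read out with a cell viability assay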
Description: SANGER: Inhibition of human SF295 cell growth in a cell viability assay.

HEC-1 = assay type: functional, cell-based, Homo sapiens; conditions: Homo sapiens, HEC-1;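 note: growth inhibition of the cell line, read out with a cell viability assay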
Description: SANGER: Inhibition of human HEC-1 cell growth in a cell viability assay.

HEL = assay type: functional, cell-based, Homo sapiens; conditions: Homo sapiens, HEL;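 note: growth inhibition of HEL cells, read out with a cell viability assay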
Description: SANGER: Inhibition of human HEL cell growth in a cell viability assay.

Ca-Ski = assay type: functional, cell-based; conditions: Homo sapiens;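 note: cell viability assay measuring inhibition of Ca-Ski cell growth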
Description: SANGER: Inhibition of human Ca-Ski cell growth in a cell viability assay.

NCI-H2087 = assay type: functional, cell-based, Homo sapiens; conditions: Homo sapiens, NCI-H2087;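 note: growth inhibition determined with a cell viability readout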
Description: SANGER: Inhibition of human NCI-H2087 cell growth in a cell viability assay.

KYSE-520 cell line = assay type: functional, cell-based, Homo sapiens; conditions: Homo sapiens, KYSE-520;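 note: growth inhibition of human KYSE-520 cells, read out with a viability assay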
Description: SANGER: Inhibition of human KYSE-520 cell growth in a cell viability assay.

GT3TKB = assay type: functional, cell-based, Homo sapiens; conditions: Homo sapiens, GT3TKB;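 note: growth inhibition of the cell line, read out with a cell viability assay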
Description: SANGER: Inhibition of human GT3TKB cell growth in a cell viability assay.

A-375 = assay type: functional, cell-based, Homo sapiens; conditions: Homo sapiens, A-375;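 note: growth inhibition of A375 cells, read out with a cell viability assay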
Description: SANGER: Inhibition of human A375 cell growth in a cell viability assay.

P12-Ichikawa = assay type: functional, cell-based; conditions: Homo sapiens
MPP-89 = assay type: functional, cell-based, Homo sapiens; conditions: Homo sapiens, MPP-89;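 note: growth inhibition of human MPP-89 cells, read out with a cell viability assay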
Description: SANGER: Inhibition of human MPP-89 cell growth in a cell viability assay.

COLO-678 = assay type: functional, cell-based, Homo sapiens; conditions: Homo sapiens, COLO-678
Description: SANGER: Inhibition of human COLO-678 cell growth in a cell viability assay.

PA-1 = assay type: functional, cell-based, Homo sapiens; conditions: Homo sapiens, PA-1;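 note: IC50 for suppression of PA-1 cell proliferation, determined with a cell viability read-out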
Description: SANGER: Inhibition of human PA-1 cell growth in a cell viability assay.

PC-3 = assay type: functional, cell-based, Homo sapiens; conditions: Homo sapiens, PC-3;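 note: cell viability assay measuring growth inhibition of PC-3 cells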
Description: SANGER: Inhibition of human PC-3 cell growth in a cell viability assay.

NOS-1 = assay type: functional, cell-based, Homo sapiens; conditions: Homo sapiens, NOS-1;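 note: growth inhibition of the human NOS-1 cell line, read out with a cell viability assay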
Description: SANGER: Inhibition of human NOS-1 cell growth in a cell viability assay.

MDA-MB-415 = assay type: functional, cell-based; conditions: Homo sapiens
KU-19-19 = assay type: functional, cell-based, Homo sapiens; conditions: Homo sapiens, KU-19-19
Description: SANGER: Inhibition of human KU-19-19 cell growth in a cell viability assay.

LCLC-97TM1 = assay type: functional, cell-based, Homo sapiens; conditions: Homo sapiens, LCLC-97TM1;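 note: cell viability assay measuring growth inhibition of human LCLC-97TM1 cells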
Description: SANGER: Inhibition of human LCLC-97TM1 cell growth in a cell viability assay.

HT = assay type: functional, cell-based; conditions: Homo sapiens
Description: SANGER: Inhibition of human HT cell growth in a cell viability assay.

Capan-2 = assay type: functional, cell-based, Homo sapiens; conditions: Homo sapiens, Capan-2;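 note: Capan-2 cell growth inhibition, read out with a viability assay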
Description: SANGER: Inhibition of human Capan-2 cell growth in a cell viability assay.

NCI-H2126 = assay type: functional, cell-based, Homo sapiens; conditions: Homo sapiens, NCI-H2126;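 note: growth inhibition of the cancer cell line, determined with a cell viability readout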
Description: SANGER: Inhibition of human NCI-H2126 cell growth in a cell viability assay.

A-431 = assay type: functional, cell-based, Homo sapiens; conditions: Homo sapiens, A-431;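 note: growth inhibition of A-431 cells, determined with a cell viability read-out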
Description: SANGER: Inhibition of human A431 cell growth in a cell viability assay.

SK-HEP1 = assay type: functional, cell-based, Homo sapiens, SK-HEP-1; conditions: Homo sapiens, SK-HEP1;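 note: cell viability readout used to quantify reduction in proliferation of human SK-HEP-1 cells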
Description: SANGER: Inhibition of human SK-HEP-1 cell growth in a cell viability assay.

NCI-H747 = assay type: functional, cell-based; conditions: Homo sapiens;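 note: growth inhibition of human NCI-H747 cells, read out by a cell viability assay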
Description: SANGER: Inhibition of human NCI-H747 cell growth in a cell viability assay.

HPAF-II = assay type: functional, cell-based, Homo sapiens; conditions: Homo sapiens, HPAF-II;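 note: growth inhibition of HPAF-II cells, read out with a cell viability assay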
Description: SANGER: Inhibition of human HPAF-II cell growth in a cell viability assay.

TE-12 = assay type: functional, cell-based; conditions: Homo sapiens;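 note: growth inhibition of TE-12 cells, read out by a cell viability assay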
Description: SANGER: Inhibition of human TE-12 cell growth in a cell viability assay.

NCI-H2228 = assay type: functional, cell-based, Homo sapiens; conditions: Homo sapiens, NCI-H2228;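 note: growth inhibition of human NCI-H2228 cells, read out by a cell viability assay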
Description: SANGER: Inhibition of human NCI-H2228 cell growth in a cell viability assay.

AGS = assay type: functional, cell-based, Homo sapiens; conditions: Homo sapiens, AGS;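 note: growth inhibition of AGS cells, determined with a cell viability assay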
Description: SANGER: Inhibition of human AGS cell growth in a cell viability assay.

Which IC50 (NCI-H720) does the source give for `O=C1N=C(NCc2cccs2)S/C1=C\c1ccc2ncccc2c1` here?
Its IC50 is greater than 5 µM.

What about the IC50 (LB2518-MEL) of the same compound?
The IC50 was greater than 5 µM.

What about the IC50 (EW-13) of the same compound?
The IC50 was greater than 5 µM.

And the IC50 (COLO-824)?
The IC50 was greater than 5 µM.

And the IC50 (FaDu)?
Its IC50 is greater than 5 µM.

And the IC50 (J82)?
The IC50 was greater than 5 µM.

And the IC50 (LAMA-84)?
The IC50 was greater than 5 µM.

And the IC50 (SW837)?
Its IC50 is greater than 5 µM.

And the IC50 (ONS-76)?
Its IC50 is greater than 5 µM.

What about the IC50 (CAL-85-1) of the same compound?
The IC50 was greater than 5 µM.

And the IC50 (CW-2)?
The IC50 was greater than 5 µM.

And the IC50 (LS-411N)?
The IC50 was greater than 5 µM.

What about the IC50 (HH) of the same compound?
The IC50 was greater than 5 µM.

What about the IC50 (LS-513) of the same compound?
The IC50 was greater than 5 µM.

What about the IC50 (A3-KAW) of the same compound?
The IC50 was greater than 5 µM.

What about the IC50 (PSN1) of the same compound?
The IC50 was 4.11 µM.

What about the IC50 (Ca9-22) of the same compound?
The IC50 was greater than 5 µM.

And the IC50 (EM-2)?
The IC50 was greater than 5 µM.

What about the IC50 (LU-139) of the same compound?
Its IC50 is greater than 5 µM.

And the IC50 (RERF-LC-MS)?
The IC50 was greater than 5 µM.

And the IC50 (HT-3)?
Its IC50 is greater than 5 µM.

What about the IC50 (NCI-H650) of the same compound?
Its IC50 is greater than 5 µM.

What about the IC50 (NEC8) of the same compound?
Its IC50 is 4.47 µM.

And the IC50 (AM-38)?
Its IC50 is greater than 5 µM.

What about the IC50 (Detroit 562) of the same compound?
Its IC50 is greater than 5 µM.

What about the IC50 (TE-9) of the same compound?
Its IC50 is greater than 5 µM.

And the IC50 (SF-295)?
The IC50 was greater than 5 µM.

And the IC50 (HEC-1)?
Its IC50 is greater than 5 µM.

What about the IC50 (HEL) of the same compound?
The IC50 was greater than 5 µM.

And the IC50 (Ca-Ski)?
Its IC50 is greater than 5 µM.

What about the IC50 (NCI-H2087) of the same compound?
Its IC50 is greater than 5 µM.

What about the IC50 (KYSE-520 cell line) of the same compound?
The IC50 was greater than 5 µM.

What about the IC50 (GT3TKB) of the same compound?
Its IC50 is greater than 5 µM.

And the IC50 (A-375)?
Its IC50 is greater than 5 µM.

And the IC50 (P12-Ichikawa)?
Its IC50 is greater than 5 µM.

And the IC50 (MPP-89)?
The IC50 was greater than 5 µM.

What about the IC50 (COLO-678) of the same compound?
Its IC50 is greater than 5 µM.

What about the IC50 (PA-1) of the same compound?
Its IC50 is 1.23 µM.

And the IC50 (PC-3)?
The IC50 was greater than 5 µM.

What about the IC50 (NOS-1) of the same compound?
Its IC50 is greater than 5 µM.

What about the IC50 (MDA-MB-415) of the same compound?
The IC50 was greater than 5 µM.

And the IC50 (KU-19-19)?
Its IC50 is greater than 5 µM.

What about the IC50 (LCLC-97TM1) of the same compound?
Its IC50 is greater than 5 µM.

What about the IC50 (HT) of the same compound?
The IC50 was greater than 5 µM.

And the IC50 (Capan-2)?
The IC50 was greater than 5 µM.

What about the IC50 (NCI-H2126) of the same compound?
Its IC50 is greater than 5 µM.

And the IC50 (A-431)?
The IC50 was greater than 5 µM.

And the IC50 (SK-HEP1)?
The IC50 was greater than 5 µM.

And the IC50 (NCI-H747)?
The IC50 was greater than 5 µM.

What about the IC50 (HPAF-II) of the same compound?
The IC50 was greater than 5 µM.

What about the IC50 (TE-12) of the same compound?
The IC50 was greater than 5 µM.

What about the IC50 (NCI-H2228) of the same compound?
Its IC50 is greater than 5 µM.

And the IC50 (AGS)?
The IC50 was greater than 5 µM.

How did the IC50 (NCI-H720) turn out when `COC(=O)CNC(=O)C(=O)OC` was run?
The IC50 was greater than 4000 µM.

What about the IC50 (LB2518-MEL) of the same compound?
Its IC50 is 235 µM.

What about the IC50 (EW-13) of the same compound?
The IC50 was 39 µM.

What about the IC50 (COLO-824) of the same compound?
Its IC50 is 2400 µM.

What about the IC50 (FaDu) of the same compound?
Its IC50 is 99.9 µM.

And the IC50 (J82)?
The IC50 was 57.6 µM.

And the IC50 (LAMA-84)?
The IC50 was 2110 µM.

And the IC50 (SW837)?
The IC50 was 858 µM.

And the IC50 (ONS-76)?
The IC50 was 241 µM.

What about the IC50 (CAL-85-1) of the same compound?
Its IC50 is 108 µM.

What about the IC50 (CW-2) of the same compound?
Its IC50 is greater than 4000 µM.

What about the IC50 (LS-411N) of the same compound?
The IC50 was greater than 4000 µM.

What about the IC50 (HH) of the same compound?
Its IC50 is 34 µM.

And the IC50 (LS-513)?
The IC50 was 1850 µM.

What about the IC50 (A3-KAW) of the same compound?
The IC50 was 15.8 µM.

What about the IC50 (PSN1) of the same compound?
Its IC50 is greater than 4000 µM.

What about the IC50 (Ca9-22) of the same compound?
The IC50 was 924 µM.

And the IC50 (EM-2)?
Its IC50 is 234 µM.

What about the IC50 (LU-139) of the same compound?
The IC50 was 184 µM.

What about the IC50 (RERF-LC-MS) of the same compound?
The IC50 was 1670 µM.

And the IC50 (HT-3)?
Its IC50 is 853 µM.

What about the IC50 (NCI-H650) of the same compound?
Its IC50 is 269 µM.

What about the IC50 (NEC8) of the same compound?
Its IC50 is 406 µM.

What about the IC50 (AM-38) of the same compound?
The IC50 was 668 µM.

And the IC50 (Detroit 562)?
Its IC50 is 507 µM.

What about the IC50 (TE-9) of the same compound?
Its IC50 is 951 µM.

What about the IC50 (SF-295) of the same compound?
Its IC50 is 344 µM.

What about the IC50 (HEC-1) of the same compound?
The IC50 was 954 µM.

And the IC50 (HEL)?
The IC50 was 197 µM.

And the IC50 (Ca-Ski)?
The IC50 was 157 µM.

What about the IC50 (NCI-H2087) of the same compound?
Its IC50 is 108 µM.

What about the IC50 (KYSE-520 cell line) of the same compound?
Its IC50 is 613 µM.

What about the IC50 (GT3TKB) of the same compound?
The IC50 was 242 µM.

What about the IC50 (A-375) of the same compound?
The IC50 was 176 µM.

And the IC50 (P12-Ichikawa)?
Its IC50 is 62 µM.

And the IC50 (MPP-89)?
Its IC50 is 1280 µM.

And the IC50 (COLO-678)?
The IC50 was 2000 µM.

And the IC50 (PA-1)?
Its IC50 is 120 µM.

And the IC50 (PC-3)?
Its IC50 is 418 µM.

What about the IC50 (NOS-1) of the same compound?
Its IC50 is 772 µM.

What about the IC50 (MDA-MB-415) of the same compound?
Its IC50 is 2930 µM.

And the IC50 (KU-19-19)?
The IC50 was 1010 µM.

And the IC50 (LCLC-97TM1)?
The IC50 was 200 µM.

And the IC50 (HT)?
The IC50 was 132 µM.

And the IC50 (Capan-2)?
The IC50 was 338 µM.

And the IC50 (NCI-H2126)?
The IC50 was 1800 µM.

And the IC50 (A-431)?
Its IC50 is 97.5 µM.

What about the IC50 (SK-HEP1) of the same compound?
The IC50 was 84.2 µM.

And the IC50 (NCI-H747)?
Its IC50 is greater than 4000 µM.

And the IC50 (HPAF-II)?
The IC50 was 998 µM.

And the IC50 (TE-12)?
Its IC50 is 182 µM.

What about the IC50 (NCI-H2228) of the same compound?
Its IC50 is 42.8 µM.

And the IC50 (AGS)?
Its IC50 is 629 µM.
